Results from patent US20240325469A1, “COMPOSITION FOR PREVENTION OR TREATMENT OF COGNITIVE DYSFUNCTION AND INTESTINAL DYSFUNCTION, COMPRISING LACTOBACILLUS PARACASEI NK112, CUSCUTA AUSTRALIS EXTRACT, AND CUSCUTA JAPONICA EXTRACT” (MTHERA PHARMA CO., LTD., priority 2021, published 2024).

Experiments:
Format in all cases: in vivo, mouse
[1] = tested on: male C57BL/6 mice administered with Escherichia coli; test: Y-maze task, Escherichia coli-induced model; details: spontaneous alternation; E. coli model mice; donepezil 5 mg/kg
Protocol: In order to evaluate spatial cognitive ability, a Y-maze task was performed. In a Y-shaped maze that has a length of 40 cm, a width of 4 cm, and a height of 12 cm and is closed on all sides, three paths were designated as A, B, and C. Then, a mouse was placed in the center and observed for 8 minutes, and the total number of entries entered was recorded. If the mouse entered three different branches in turn, the alternation number was counted as 1. […] The alternation number is defined as entering all three in turn, and the calculation for evaluation of spatial cognitive function was performed using the following equation.
Spontaneous alternation (%)=(total number of alternation/(total number of entries-2))×100

[2] = tested on: male C57BL/6 mice administered with Escherichia coli; test: Novel object recognition test (NORT), Escherichia coli-induced model; details: recognition index; E. coli model mice; donepezil 5 mg/kg
Protocol: The mouse was moved to the behavior observation room and acclimatized for 5 minutes. Thereafter, in a 3-minute exposure trial, two identical objects (1 set) were placed in a box 30 cm apart, and the time the mouse recognized the objects for 3 minutes was measured. […] The recognition index (%) is converted into the preference for new objects (time to recognize novel objects/total recognition time)×100.

[3] = tested on: male C57BL/6 mice administered with Escherichia coli; test: Elevated plus maze (EPM) test, Escherichia coli-induced model; details: E. coli model mice; once a day for 5 days; NK112 samples 1×10^9 CFU, fluoxetine 1 mg/kg
Protocol: 5-week-old male C57BL/6 mice having a body weight of 19 to 21 g were divided into a normal group and an experimental group, with 6 mice per group, and acclimatized to the laboratory for 1 week, and then the experiment was performed. The experimental group was administered with Escherichia coli (1×10^9 CFU/mouse/day) orally once a day for 5 days, and the normal group was administered with physiological saline. […]
The elevated plus maze is an experimental apparatus to measure the level of anxiety, depression, or stress, etc. […] The movements of the mouse placed in the elevated plus maze were recorded in a room with a brightness of 20 lux and a video camera installed above.
Specifically, a C57BL/6 mouse was placed facing the open arm with its head in the exact center of the elevated plus maze, and the time and number of times it spent in the open arms and the enclosed arms for 5 minutes were measured. […]
Of the total experimental time, time spent in open arms (OT) was calculated as [time spent in open arms/(time spent in open arms+time spent in enclosed arms)]×100. Open arm entry (OE) was calculated as [open arm entry/(open arm entry+enclosed arm entry)]×100. […]

[4] = tested on: male C57BL/6 mice administered with Escherichia coli; test: Forced swimming test (FST), Escherichia coli-induced model; details: E. coli model mice; once a day for 5 days; NK112 samples 1×10^9 CFU, fluoxetine 1 mg/kg
Protocol: (§1) 5-week-old male C57BL/6 mice having a body weight of 19 to 21 g were divided into a normal group and an experimental group, with 6 mice per group, and acclimatized to the laboratory for 1 week, and then the experiment was performed. The experimental group was administered with Escherichia coli (1×10^9 CFU/mouse/day) orally once a day for 5 days, and the normal group was administered with physiological saline.
(§2) Thereafter, 1×10^9 CFU heat-treated lactic acid bacteria (heat-killed NK112), 1×10^9 CFU lactic acid bacteria lysate supernatant (NK112 cytoplasmic component), 1×10^9 CFU lactic acid bacteria lysate precipitate (NK112 cell wall component), or positive control group drug (fluoxetine 1 mg/kg) was administered once a day for 5 days, respectively.
In the case of heat-treated lactic acid bacteria (heat-killed NK112), the precipitate obtained by centrifuging the lactic acid bacteria culture solution in MRS medium was suspended to 1×10^10 CFU/ml, and then heat-treated twice at 70° C. for 10 minutes each to prepare them. […]
A water tank with a height of 40 cm and a diameter of 20 cm was filled with water at a temperature of 25±1° C. to a height of 30 cm. […] The first 2 minutes were not measured as adaptation time, and the immobility time of the experimental animals was measured for the next 4 minutes. […]

[5] = tested on: male C57BL/6 mice administered with Escherichia coli; test: Tail suspension test (TST), Escherichia coli-induced model; details: E. coli model mice; once a day for 5 days; NK112 samples 1×10^9 CFU, fluoxetine 1 mg/kg
Protocol: as §1
as §2, with “respectively. […]” for “respectively.”
According to the method of Steru et al. (Steru L, Chermat R, Thierry B, Simon P (1985) The tail suspension test: A new method for screening antidepressants in mice, Psychopharmacology, Vol. 85; pp. 367-370), A fixation apparatus was attached to the end of the mouse's tail about 1 cm, and then it was hung 50 cm away from the ground in a container with a diameter of 35 cm and a height of 50 cm. The immobility time of the experimental animals was measured for a total of 6 minutes.

corticosterone in blood = test: Corticosterone in blood, Escherichia coli-induced model; details: E. coli model mice; once a day for 5 days; NK112 samples 1×10^9 CFU, fluoxetine 1 mg/kg
Protocol: as §1, §2
In addition, the concentration of corticosterone in blood, which induces anxiety, in each mouse was also measured and shown in Table 2 below.

Row | SMILES | Y-maze task (%) [1] [%] | NORT test (%) [2] [%] | EPM test (%, time spent in open arm) [3] [%] | FST test (%, immobility time) [4] [%] | TST test (%, immbolity time) [5] [%] | Corticosterone in blood (corticosterone in blood) [ng/mL]
1 | COc1cc2c(cc1OC)C(=O)C(CC1CCN(Cc3ccccc3)CC1)C2 (stereo not drawn) [Donepezil, donepezil] | 63.2 | 62.2 | – | – | – | –
2 | CNCCC(Oc1ccc(C(F)(F)F)cc1)c1ccccc1 (stereo not drawn) [Fluoxetine, fluoxetine] | – | – | 9.8 | 32.1 | 33.5 | 202.5
